Laboratory results reported in patent publication US9963446B2, “Oxepan-2-yl-pyrazol-4-yl-heterocyclyl-carboxamide compounds and methods of use” (Genentech, Inc., priority 2014, dated 2018).

Key:
BaF3 PIM1 cells = experiment: In vitro cell proliferation, BaF3 transfected with PIM1; format: cell-based, murine; conditions: Mus musculus; BaF3 PIM1 line, incubated overnight; read-out: Prolif BaF3 PIM1 (IC50)
Method: (§1) BaF3 parental line was obtained from the DSMZ repository. BaF3 lines transfected with PIM1 or PIM2 were generated. Mouse IL-3 was purchased from R&D Systems. G418 was purchased from Clontech. Media for BaF3 parental line contained RPMI, 10% FBS, 2 mM L-Glutamine, 2 ng/mL mIL-3. Media for BaF3 PIM1 & 2 lines contained RPMI, 10% FBS, 2 mM L-Glutamine, […]. Media for MM1.S (multiple myeloma cells) line contained RPMI, 10% FBS, 2 mM L-Glutamine.
(§2) BaF3, a murine interleukin-3 dependent pro-B cell line, parental cells, BaF3 PIM1 cells, BaF3 PIM2 cells, and MM1.S (multiple myeloma) cells were seeded at 2 k/well, 5 k/well, 5 k/well, and 10 k/well respectively, in a 384-well plate, at 45 μL/well. Test compound was added at 5 μL/well. BaF3 cells (parental and transfected) were incubated overnight, while MM1.S cells were incubated for 72 hours at 37° C., 5% CO2. CELL TITER GLO® Reagent (Promega) was added at 50 μL/well, the plates were incubated for 30 minutes, and their luminescence read on an HT Analyst. IC50/EC50 values for the test compound were calculated.

PIM1 = PIM1 (Homo sapiens (Human), UniProt P11309); experiment: Pim kinase binding activity (PIM1 LC3K Ki); format: biochemical; conditions: 20 pM PIM1, 10 μM ATP, 90 minutes
Method: PIM-1, -2, and -3 enzymes were generated as fusion proteins expressed in bacteria and purified by IMAC column chromatography (Sun, X., Chiu, J. F., and He, Q. Y. (2005) Expert Rev. Proteomics, 2:649-657). A fluorescent-labeled Pim-specific peptide substrate, was custom synthesized by American Peptide Company (Sunnyvale, Calif.). Reaction Buffer contained 10 mM HEPES, pH 7.2, 10 mM MgCl2, 0.01% Tween 20, 2 mM DTT. Termination Buffer contained 190 mM HEPES, pH 7.2, 0.015% Brij-35, 0.2% Coating Reagent 3 (Caliper Life Sciences, Hopkinton, Mass.), 20 mM EDTA. Separation Buffer contained 100 mM HEPES, pH 7.2, 0.015% Brij-35, 0.1% Coating Reagent 3, 1:200 Coating Reagent 8 (Caliper Life Sciences, Hopkinton, Mass.), 10 mM EDTA and 5% DMSO.
PIM reactions were carried out in a final volume of 10 μL per well in a 384-well plate. A standard enzymatic reaction, initiated by the addition of 5 μL 2×ATP and test compound to 5 μL of 2× enzyme and FAM-peptide, contained 20 pM PIM1, 50 pM PIM2, or 55 pM PIM3, 1 μM FAM-peptide, and 10 μM ATP, in Reaction Buffer. After 90 minutes of incubation at room temperature, the phosphorylation reaction was stopped by the addition of 10 μL Termination Buffer. The product and substrate in each independent reaction were separated on a 12-sipper microfluidic chip (Caliper Life Sciences, Hopkinton, Mass.) run on a Caliper LC3000® (Caliper Life Sciences, Hopkinton, Mass.). The separation of product and substrate was optimized by choosing voltages and pressure using Caliper's Optimizer software (Hopkinton, Mass.). The separation conditions used a downstream voltage of −500V, an upstream voltage of −2150V, and a screening pressure of −1.2 psi. The product and substrate fluorophore were excited at 488 nm and detected at 530 nm. Substrate conversion was calculated from the electropherogram using HTS Well Analyzer software (Caliper Life Sciences, Hopkinton, Mass.). Ki values for the test compound were calculated. See Table 1 for representative PIM1 LC3K Ki in micromolar values of exemplary compounds.

BaF3 parental cells = experiment: In vitro cell proliferation, BaF3 parental line + IL3; format: cell-based, murine; conditions: Mus musculus; BaF3 parental line with mIL-3, incubated overnight; read-out: Prolif BaF3 + IL3 (IC50)
Method: as §1, §2

[1] = tested on: MM1.S (multiple myeloma) cells; experiment: In vitro cell proliferation, MM1.S (CELL TITER GLO); format: cell-based; conditions: Homo sapiens, 72 hours, read-out: Prolif MM1S ATP (EC50)
Method: as §1, §2

Sequence of PIM1 (P11309 whole entry, the tested form may be a part): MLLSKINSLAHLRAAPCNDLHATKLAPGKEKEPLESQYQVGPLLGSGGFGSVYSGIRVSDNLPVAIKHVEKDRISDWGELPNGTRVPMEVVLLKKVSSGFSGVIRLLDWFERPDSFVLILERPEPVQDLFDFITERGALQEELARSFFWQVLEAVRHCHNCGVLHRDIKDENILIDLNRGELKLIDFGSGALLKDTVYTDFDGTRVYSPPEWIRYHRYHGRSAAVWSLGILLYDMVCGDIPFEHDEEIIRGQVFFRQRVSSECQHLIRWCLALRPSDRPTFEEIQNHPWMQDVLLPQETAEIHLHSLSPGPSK

Compound	IC50 (BaF3 PIM1 cells) [nM]	Ki (PIM1) [nM]	IC50 (BaF3 parental cells) [nM]	EC50 [1] [nM]
Cn1ncc(NC(=O)c2csc(-c3n[nH]c4c3CCC4)n2)c1[C@@H]1CC[C@@H](N)[C@H](F)CO1 [Example 113, N-[5-[(2S,5R,6S)-5-amino-6-fluoro-oxepan-2-yl]-1-methyl-pyrazol-4-yl]-2-(1,4,5,6-tetrahydrocyclopenta[c]pyrazol-3-yl)thiazole-4-carboxamide]	327	0.03	13600	906
CO[C@H]1[C@H](N)CC[C@@H](c2c(NC(=O)c3csc(-c4c(F)cccc4F)n3)cnn2C)O[C@H]1C [Example 117, N-[5-[(2S,5R,6S,7S)-5-amino-6-methoxy-7-methyl-oxepan-2-yl]-1-methyl-pyrazol-4-yl]-2-(2,6-difluorophenyl)thiazole-4-carboxamide]	14	0.0325	6900	53.9
N[C@H]1CC[C@H](c2c(NC(=O)c3csc(-c4c(F)cccc4F)n3)cnn2CC(F)F)OC[C@@H]1F [Example 116, N-(5-((2R,5S,6R)-5-amino-6-fluorooxepan-2-yl)-1-(2,2-difluoroethyl)-1H-pyrazol-4-yl)-2-(2,6-difluorophenyl)thiazole-4-carboxamide]	2750		10500	2700
Cn1ncc(NC(=O)c2csc(-c3cnccn3)n2)c1[C@@H]1CC[C@@H](N)[C@H](F)CO1 [Example 105, N-[5-[(2S,5R,6S)-5-amino-6-fluoro-oxepan-2-yl]-1-methyl-pyrazol-4-yl]-2-pyrazin-2-yl-thiazole-4-carboxamide]	142	0.095	> 25000	473
Cc1cccnc1-c1nc(C(=O)Nc2cn[nH]c2[C@H]2CC[C@H](N)[C@@H](F)CO2)cs1 [Example 127, N-(5-((2R,5S,6R)-5-amino-6-fluorooxepan-2-yl)-1H-pyrazol-4-yl)-2-(3-methylpyridin-2-yl)thiazole-4-carboxamide]		1.1		10800
N[C@H]1CC[C@H](c2c(NC(=O)c3csc(-c4c(F)cccc4F)n3)cnn2C2CC2)OC[C@@H]1F [Example 103, N-[5-[(2R,5S,6R)-5-amino-6-fluoro-oxepan-2-yl]-1-cyclopropyl-pyrazol-4-yl]-2-(2,6-difluorophenyl)thiazole-4-carboxamide]	145	0.18	12000	731
C[C@@H](F)c1cc(F)c(-c2nc(C(=O)Nc3cnn(C)c3[C@@H]3CC[C@@H](N)[C@H](F)CO3)cs2)c(F)c1 [Example 106, N-(5-((2S,5R,6S)-5-amino-6-fluorooxepan-2-yl)-1-methyl-1H-pyrazol-4-yl)-2-(2,6-difluoro-4-((R)-1-fluoroethyl)phenyl)thiazole-4-carboxamide]	29.9	0.015	8600	235
CO[C@H]1[C@H](C)O[C@@H](c2c(NC(=O)c3csc(-c4c(F)cccc4F)n3)cnn2C)CC[C@@H]1N [Example 107, N-(5-((2R,5S,6R,7S)-5-amino-6-methoxy-7-methyloxepan-2-yl)-1-methyl-1H-pyrazol-4-yl)-2-(2,6-difluorophenyl)thiazole-4-carboxamide]	264	0.1	20700	5800
Cn1ncc(NC(=O)c2csc(-c3c(F)cc4c(c3F)OCC[C@@H]4O)n2)c1[C@@H]1CC[C@@H](N)[C@H](F)CO1 [Example 111, N-(5-((2S,5R,6S)-5-amino-6-fluorooxepan-2-yl)-1-methyl-1H-pyrazol-4-yl)-2-((S)-6,8-difluoro-4-hydroxychroman-7-yl)thiazole-4-carboxamide]	96.2		> 25000	1500
Cn1ncc(NC(=O)c2csc(-c3cc4[nH]ncc4cc3F)n2)c1[C@@H]1CC[C@@H](N)[C@H](F)CO1 [Example 109, N-[5-[(2S,5R,6S)-5-amino-6-fluoro-oxepan-2-yl]-1-methyl-pyrazol-4-yl]-2-(5-fluoro-1H-indazol-6-yl)thiazole-4-carboxamide]	39.4	0.019	3100	287
Cn1ncc(NC(=O)c2csc(-c3cccc4cccnc34)n2)c1[C@@H]1CC[C@@H](N)[C@H](F)CO1 [Example 120, N-[5-[(2S,5R,6S)-5-amino-6-fluoro-oxepan-2-yl]-1-methyl-pyrazol-4-yl]-2-(8-quinolyl)thiazole-4-carboxamide]	563	1.79	2300	228
Cc1cnc(-c2nc(C(=O)Nc3cnn(C)c3[C@@H]3CC[C@@H](N)[C@H](F)CO3)cs2)cn1 [Example 110, N-[5-[(2S,5R,6S)-5-amino-6-fluoro-oxepan-2-yl]-1-methyl-pyrazol-4-yl]-2-(5-methylpyrazin-2-yl)thiazole-4-carboxamide]	63.8	0.018	9200	148
COc1cnc(-c2nc(C(=O)Nc3cnn(C)c3[C@@H]3CC[C@@H](N)[C@H](F)CO3)cs2)c(C)c1 [Example 119, N-[5-[(2S,5R,6S)-5-amino-6-fluoro-oxepan-2-yl]-1-methyl-pyrazol-4-yl]-2-(5-methoxy-3-methyl-2-pyridyl)thiazole-4-carboxamide]	49.2	0.043	2900	407
Cn1ncc(NC(=O)c2csc(-c3cn4ccncc4n3)n2)c1[C@@H]1CC[C@@H](N)[C@H](F)CO1 [Example 125, N-(5-((2S,5R,6S)-5-amino-6-fluorooxepan-2-yl)-1-methyl-1H-pyrazol-4-yl)-2-(imidazo[1,2-a]pyrazin-2-yl)thiazole-4-carboxamide]		32.8		> 25000
Cc1cccnc1-c1nc(C(=O)Nc2cn[nH]c2[C@@H]2CC[C@@H](N)[C@H](F)CO2)cs1 [Example 128, N-(5-((2S,5R,6S)-5-amino-6-fluorooxepan-2-yl)-1H-pyrazol-4-yl)-2-(3-methylpyridin-2-yl)thiazole-4-carboxamide]		0.777		3000
N[C@@H]1CC[C@@H](c2[nH]ncc2NC(=O)c2csc(-c3c(F)cccc3F)n2)OC[C@H]1F [Example 129, N-(5-((2S,5R,6S)-5-amino-6-fluorooxepan-2-yl)-1H-pyrazol-4-yl)-2-(2,6-difluorophenyl)thiazole-4-carboxamide]		0.958		7300
N[C@@H]1CC[C@@H](c2c(NC(=O)c3csc(-c4c(F)cccc4F)n3)cnn2CC(F)F)OC[C@H]1F [Example 115, N-(5-((2S,5R,6S)-5-amino-6-fluorooxepan-2-yl)-1-(2,2-difluoroethyl)-1H-pyrazol-4-yl)-2-(2,6-difluorophenyl)thiazole-4-carboxamide]	29.3		5500	181
C[C@@H]1O[C@H](c2c(NC(=O)c3csc(-c4c(F)cccc4F)n3)cnn2C)CC[C@@H](N)[C@@H]1F [Example 124, N-[5-[(2S,5R,6S,7S)-5-amino-6-fluoro-7-methyl-oxepan-2-yl]-1-methyl-pyrazol-4-yl]-2-(2,6-difluorophenyl)thiazole-4-carboxamide]		0.051		54
N[C@H]1CC[C@H](c2[nH]ncc2NC(=O)c2csc(-c3c(F)cccc3F)n2)OC[C@@H]1F [Example 126, N-(5-((2R,5S,6R)-5-amino-6-fluorooxepan-2-yl)-1H-pyrazol-4-yl)-2-(2,6-difluorophenyl)thiazole-4-carboxamide]		1.48		8000
